Test results taken from PMC10459521, “Unfolding the Antibacterial Activity and Acetylcholinesterase Inhibition Potential of Benzofuran-Triazole Hybrids: Synthesis, Antibacterial, Acetylcholinesterase Inhibition, and Molecular Docking Studies” (Molecules, 2023).
In brackets after ≈: the same amount, converted by molar mass. Read-outs that look alike come from different tables or passages of the source.

Legend:
[1] = target: acetylcholinesterase (AChE) (Homo sapiens, UniProt P22303); assay: AChE inhibition assay (modified Ellman's method); format: biochemical; conditions: for inhibition at 500 µM: 0.5 mM; for IC50: Ellman's method
Procedure: The inhibitory effects of all synthesized derivatives on AChE activities were measured using a modified Ellman’s method. This experimental study used DTNB (5,5′-dithio-bis(2-nitro-benzoic)acid) and AChI as the […]. The tested compounds (10 µL; […]) were mixed with AChE (50 µL; 38 U) solution and incubated for 10 min at 25 °C. DTNB (50 µL; 0.3 mM) was then added. The transfer of AChI (200 µL; 50 mM Tris/HCl buffer pH = 8) initiated the reaction. A spectrophotometer recorded the hydrolysis of AChI by the formation of yellow 5-thio-2-nitrobenzoate anions as a result of the reaction of DTNB with thiocholine at a wavelength of 412 nm. […] The given formula was used to calculate the (%) inhibition: Inhibition %=Control−Test/Control×100
IC50 values were calculated using data from GraphPad Prism 5 software.

E. coli AB-274 = assay: Antibacterial assay, disc diffusion method (inhibition zone and MIC); format: cell-based; conditions: for Inhibition Zone / zone of inhibition at 25 µg/disc: disc diffusion, 25 μg per disc, includes 5.6 mm disc diameter
Procedure: (§1) The evaluation of in vitro antibacterial activity of synthesized compounds was performed against two bacterial strains, namely Gram +ve B. subtilis QB-928 and Gram −ve E. coli AB-274 using the disc diffusion method.
The antibacterial potential of all targeted compounds was evaluated using the disc diffusion method. A suspension of 100 μL containing 10^8 cfu/mL of bacteria was applied on nutrient agar media with the support of a sterilized loop. […] The standard penicillin (25 μg per disc) was utilized as a positive control for antibacterial assay. These discs were carefully placed on agar which had originally been […] with selected bacterial cells. The agar culture plates were stored at 4 °C for 1 h and then the bacterial culture plate was incubated at 27 °C for 24 h. […]

B. subtilis QB-928 = assay: as above; format: cell-based; conditions: for zone of inhibition at 25 µg/disc: QB928, disc diffusion; for zone of inhibition at 25 µg/disc / Inhibition Zone: 25 μg per disc, includes 5.6 mm disc diameter; for Inhibition Zone: disc diffusion
Procedure: as §1
The antibacterial potential of all targeted compounds was evaluated using the disc diffusion method. A suspension of 100 μL containing 10^8 cfu/mL of bacteria was applied on nutrient agar media with the support of a sterilized loop. The compound solution was infused into sterilized filter paper discs (5.6 mm in diameter) at a particular concentration (25 μg/100 μL) in chloroform. The standard penicillin (25 μg per disc) was utilized as a positive control for antibacterial assay. These discs were carefully placed on agar which had originally been […] with selected bacterial cells. The agar culture plates were stored at 4 °C for 1 h and then the bacterial culture plate was incubated at 27 °C for 24 h. The inhibition zone was determined in millimeters (including the 5.6 mm disc diameter) with a reference control.

AChE = conditions: Figure 2; cited from earlier work
[2] = Escherichia coli, AB274, E. coli
[3] = Escherichia coli, AB274, E. coli, read-out: MIC
[4] = Bacillus subtilis, QB928, read-out: MIC

Chain of acetylcholinesterase (AChE) (P22303 32-614): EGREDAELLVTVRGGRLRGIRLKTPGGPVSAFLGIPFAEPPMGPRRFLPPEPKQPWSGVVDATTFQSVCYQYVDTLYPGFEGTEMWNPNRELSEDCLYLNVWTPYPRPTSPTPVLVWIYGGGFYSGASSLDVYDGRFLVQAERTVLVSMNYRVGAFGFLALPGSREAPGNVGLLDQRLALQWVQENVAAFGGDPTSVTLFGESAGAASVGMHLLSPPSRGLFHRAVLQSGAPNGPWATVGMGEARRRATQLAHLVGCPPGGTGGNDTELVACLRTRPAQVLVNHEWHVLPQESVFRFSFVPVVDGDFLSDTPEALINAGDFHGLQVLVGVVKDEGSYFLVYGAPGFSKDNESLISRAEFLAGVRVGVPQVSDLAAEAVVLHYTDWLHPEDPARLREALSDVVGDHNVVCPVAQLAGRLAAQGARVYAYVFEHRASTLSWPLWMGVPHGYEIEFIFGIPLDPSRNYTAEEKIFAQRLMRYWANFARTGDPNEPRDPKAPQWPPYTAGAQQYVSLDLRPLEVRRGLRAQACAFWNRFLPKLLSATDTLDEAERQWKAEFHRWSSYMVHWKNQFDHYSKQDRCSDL

Row | Molecule | inhibition at 500 µM [1] [%] | IC50 [1] [nM] | Inhibition Zone (E. coli AB-274; E. coli) [mm] | zone of inhibition at 25 µg/disc (E. coli AB-274; [2]) [mm] | MIC (E. coli AB-274; [3]) [µg/mL] | zone of inhibition at 25 µg/disc (B. subtilis QB-928; Bacillus subtilis) [mm] | MIC (B. subtilis QB-928; [4]) [µg/mL] | Inhibition Zone (B. subtilis QB-928) | IC50 (AChE) [nM] | other results
1 | O=C(CSc1nnc(-c2cc3cc(Br)ccc3o2)n1-c1ccc(Cl)c(Cl)c1)Nc1ccc(Cl)c(Cl)c1 [Compound 10e, 2-((5-(5-Bromobenzofuran-2-yl)-4-(3,4-dichlorophenyl)-4H-1,2,4-triazol-3-yl)thio)-N-(3,4-dichlorophenyl)acetamide] | 51.2 ± 1.24 | 1980 ± 250 | 24 ± 0.50 | 24 | 2.5 ± 1.4 (≈ 3.89 µM) | 8 | 14 ± 1.8 (≈ 21.8 µM) | 8 ± 0.75 mm | – | –
2 | Cc1cc(C)cc(C[n+]2ccc(-c3cc4ccccc4o3)cc2)c1 [Compound 1a] | – | – | – | – | – | – | – | – | 4.1 ± 1.5 | –
3 | penicillin [reference compound] | – | – | 24 ± 0.50 | – | – | – | – | 18 ± 0.50 mm | – | MIC (E. coli AB-274; E. coli): 2.4 ± 1.00 µg/mL; MIC (B. subtilis QB-928): 1 ± 1.50 µg/mL; Inhibition Zone (B. subtilis QB-928; listed as penicillin): 18 mm; MIC (B. subtilis QB-928; listed as penicillin): 1 µg/mL
4 | O=C(NCCCNc1c2c(nc3cc(Cl)ccc13)CCCC2)c1cc2ccccc2o1 [Compound 1b] | – | – | – | – | – | – | – | – | 120 | –
5 | Cc1ccc(NC(=O)CSc2nnc(-c3cc4cc(Br)ccc4o3)n2-c2ccccc2)cc1C [Compound 10b, 2-((5-(5-Bromobenzofuran-2-yl)-4-phenyl-4H-1,2,4-triazol-3-yl)thio)-N-(3,4-dimethylphenyl)acetamide] | 61.7 ± 1.5 | 1500 ± 1000 | 11.5 ± 1.40 | 11.5 | 3.8 ± 2.1 (≈ 7.12 µM) | 42 | 1.25 ± 0.6 (≈ 2.34 µM) | 42 ± 1.00 mm | – | MIC (B. subtilis QB-928): 1.25 µg/mL (≈ 2.34 µM)
6 | COc1cccc2cc(C(=O)NCCn3ccc(=O)c(OCc4ccccc4)c3C)oc12 [Compound 1d] | – | – | – | – | – | – | – | – | 76000 | –
7 | O=C(CSc1nnc(-c2cc3cc(Br)ccc3o2)n1-c1ccccc1)Nc1ccc([N+](=O)[O-])cc1 [Compound 10c, 2-((5-(5-Bromobenzofuran-2-yl)-4-phenyl-4H-1,2,4-triazol-3-yl)thio)-N-(4-nitrophenyl)acetamide] | 55.9 ± 1.25 | 2280 ± 1750 | 28 ± 0.00 | 28 | 2.5 ± 0.7 (≈ 4.54 µM) | – | – | no detectable results | – | –
8 | COc1cccc2cc(C(=O)NCCCCNC(=O)c3cc4ccccc4o3)c(=O)oc12 [Compound 1c] | – | – | – | – | – | – | – | – | 180 ± 50 | –
9 | O=C(CSc1nnc(-c2cc3cc(Br)ccc3o2)n1-c1ccccc1)Nc1ccccc1 [Compound 10a, 2-((5-(5-bromobenzofuran-2-yl)-4-phenyl-4H-1,2,4-triazol-3-yl)thio)-N-phenylacetamide] | 65.8 ± 1.5 | 880 ± 500 | 38 ± 1.50 | 38 | – | – | – | no detectable results | – | MIC (E. coli AB-274; E. coli): 1.80 µg/mL (≈ 3.56 µM); MIC (E. coli AB-274; Escherichia coli, AB274): 1.8 ± 0.25 µg/mL (≈ 3.56 µM)
10 | COc1ccc(OC)c(NC(=O)CSc2nnc(-c3cc4cc(Br)ccc4o3)n2-c2ccc(Cl)c(Cl)c2)c1 [Compound 10d, 2-((5-(5-Bromobenzofuran-2-yl)-4-(3,4-dichlorophenyl)-4H-1,2,4-triazol-3-yl)thio)-N-(2,5-dimethoxyphenyl)acetamide] | 81.45 ± 0.5 | 550 ± 1000 | 12 ± 0.65 | 12 | 16 ± 1 (≈ 25.2 µM) | 11 | 9.25 ± 1.25 (≈ 14.6 µM) | 11 ± 0.50 mm | – | –
